Test results from paper PMC10648541, “Design, Synthesis, and Antiproliferative Activity of Selective Histone Deacetylases 6 Inhibitors Containing a Tetrahydropyridopyrimidine Scaffold” (Molecules, 2023).

Columns and labels:
[1] = test system: acetylated histone 3 (H3); assay: Western blot, acetylated histone 3 in RPMI-8226 cells; format: cell-based, human; details: 24 h, 1, 5, and 10 μM
Procedure: RPMI-8226 cells (1 × 10^6) were seeded overnight and incubated with compound 8f for 24 h on indicated concentrations. Cell extract was prepared by lysing cultured cells with a mammalian protein extraction reagent supplemented with EDTA-free protease inhibitor for 15 min. SDS-PAGE and immunoblot analysis were conducted as described. Antibodies for Ac-H3 (abcom, AB32129) and Ac-ɑ-tubulin (Cell Signaling, 2144) were used.

HDAC4 = target: T1, HDAC4 (Homo sapiens, UniProt P56524); assay: In vitro HDAC enzyme assay (Reaction Biology Corporation), HDAC4; format: biochemical; details: Table 2 isozyme screen; duplicate, SD < 15%
T1 construct: purchased Reaction Biology Corporation
T1 sequence (P56524 whole entry): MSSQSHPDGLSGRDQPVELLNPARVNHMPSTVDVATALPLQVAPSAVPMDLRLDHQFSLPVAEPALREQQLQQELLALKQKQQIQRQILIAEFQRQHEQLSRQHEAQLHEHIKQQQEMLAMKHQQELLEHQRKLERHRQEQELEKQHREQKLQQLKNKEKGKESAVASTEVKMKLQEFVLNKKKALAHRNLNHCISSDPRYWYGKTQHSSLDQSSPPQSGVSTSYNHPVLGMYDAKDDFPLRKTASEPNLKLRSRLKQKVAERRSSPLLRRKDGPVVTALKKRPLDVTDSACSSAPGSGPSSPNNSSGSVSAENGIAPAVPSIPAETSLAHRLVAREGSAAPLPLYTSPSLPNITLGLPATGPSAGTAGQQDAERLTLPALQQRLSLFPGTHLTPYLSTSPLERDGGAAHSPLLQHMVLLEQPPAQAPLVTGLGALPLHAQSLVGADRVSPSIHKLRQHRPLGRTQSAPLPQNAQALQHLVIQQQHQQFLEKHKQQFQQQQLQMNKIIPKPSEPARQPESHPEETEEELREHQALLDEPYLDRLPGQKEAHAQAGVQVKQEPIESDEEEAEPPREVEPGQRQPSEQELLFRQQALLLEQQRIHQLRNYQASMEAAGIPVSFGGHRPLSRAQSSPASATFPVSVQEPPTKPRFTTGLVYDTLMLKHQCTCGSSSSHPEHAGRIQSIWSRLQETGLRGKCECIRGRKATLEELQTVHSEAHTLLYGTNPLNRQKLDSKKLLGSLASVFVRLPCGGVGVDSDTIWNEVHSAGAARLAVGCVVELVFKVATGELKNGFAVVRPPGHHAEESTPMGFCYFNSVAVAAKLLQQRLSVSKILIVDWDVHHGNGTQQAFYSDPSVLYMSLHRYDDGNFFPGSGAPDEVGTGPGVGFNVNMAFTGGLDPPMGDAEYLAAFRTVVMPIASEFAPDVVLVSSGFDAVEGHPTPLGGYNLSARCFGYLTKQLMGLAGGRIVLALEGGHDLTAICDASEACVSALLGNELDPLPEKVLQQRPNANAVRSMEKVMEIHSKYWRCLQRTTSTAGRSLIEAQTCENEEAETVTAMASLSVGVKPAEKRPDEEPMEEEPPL

SK-MEL-2 = assay: NCI-60 antiproliferative screening, SK-MEL-2; format: cell-based; details: Homo sapiens, SK-MEL-2 (Melanoma), read-out: Inhibition% values at 10 μM concentration
Source text: (§1) Then, 8f was submitted to NCI for antiproliferative evaluation against 59 different tumor cell lines. The cancer types of the NCI-60 program include leukemia, non-small cell lung cancer (NSCLC), colon cancer, CNS cancer, melanoma, ovary cancer, renal cancer, prostate cancer, and breast cancer.

UACC-257 = assay: NCI-60 antiproliferative screening, UACC-257; format: cell-based; details: Homo sapiens, read-out: Inhibition% values at 10 μM concentration
Source text: as §1

HOP-62 = assay: NCI-60 antiproliferative screening, HOP-62; format: cell-based; details: Homo sapiens, HOP-62 (Non-Small Cell Lung Cancer), read-out: Inhibition% values at 10 μM concentration
Source text: as §1

786-0 = assay: NCI-60 antiproliferative screening, 786-0; format: cell-based; details: Homo sapiens, 786-0 (Renal Cancer), read-out: Inhibition% values at 10 μM concentration
Source text: as §1

MALME-3M = assay: NCI-60 antiproliferative screening, MALME-3M; format: cell-based; details: Homo sapiens, MALME-3M (Melanoma), read-out: Inhibition% values at 10 μM concentration
Source text: as §1

SNB-19 = assay: NCI-60 antiproliferative screening, SNB-19; format: cell-based; details: Homo sapiens, SNB-19 (CNS Cancer), read-out: Inhibition% values at 10 μM concentration
Source text: as §1

HCC-2998 = assay: NCI-60 antiproliferative screening, HCC-2998; format: cell-based; details: Homo sapiens, HCC-2998 (Colon Cancer), read-out: Inhibition% values at 10 μM concentration
Source text: as §1

UO-31 = assay: NCI-60 antiproliferative screening, UO-31; format: cell-based; details: Homo sapiens, UO-31 (Renal Cancer), read-out: Inhibition% values at 10 μM concentration
Source text: as §1

HT29 = assay: NCI-60 antiproliferative screening, HT29; format: cell-based; details: Homo sapiens, HT-29, HT29 (Colon Cancer), read-out: Inhibition% values at 10 μM concentration
Source text: as §1

RPMI-8226 = assay: Antiproliferative assay (Alamar blue, 72 h), RPMI-8226; format: cell-based, human; details: Homo sapiens, RPMI-8226 cells, three independent experiments, SD < 10%, read-out: Antiproliferative effect IC50, RPMI-8226
Procedure: The cells were cultured in IMDM (Gibco) medium with 20% FBS (Lonsera), 100 U/mL penicillin, and 100 µg/mL streptomycin (Solarbio). All cells were maintained at 37 °C in a humidified atmosphere of 5% CO2 in air. Briefly, 100 µL cell suspension or completed medium was plated into a 96-well plate. Compounds were added and incubated for 72 h. Then, 22 µL Alamar blue solution (1 mM) was pipetted into each well of a 96-well plate, and the plate was incubated for an additional 5~6 h. The absorbance (OD) was read at 530/590 nm. Data were normalized to vehicle groups (DMSO) and represented as the means of three independent measurements with standard errors of <20%. The IC50 values were calculated using Prism 5.0.

MDA-MB-468 = assay: NCI-60 antiproliferative screening, MDA-MB-468; format: cell-based; details: Homo sapiens, MDA-MB-468 (Breast Cancer), read-out: Inhibition% values at 10 μM concentration
Source text: as §1

HCT-116 = assay: NCI-60 antiproliferative screening, HCT-116; format: cell-based; details: Homo sapiens, HCT-116 (Colon Cancer), read-out: Inhibition% values at 10 μM concentration
Source text: as §1

HOP-92 = assay: NCI-60 antiproliferative screening, HOP-92; format: cell-based; details: Homo sapiens, HOP-92 (Non-Small Cell Lung Cancer), read-out: Inhibition% values at 10 μM concentration
Source text: as §1

[2] = test system: 59 different tumor cell lines; assay: NCI-60 antiproliferative evaluation, whole panel; format: cell-based; details: 10 μM, of 59 tumor cell lines
Source text: as §1

OVCAR-5 = assay: NCI-60 antiproliferative screening, OVCAR-5; format: cell-based; details: Homo sapiens, OVCAR-5 (Ovarian Cancer), read-out: Inhibition% values at 10 μM concentration
Source text: as §1

NCI/ADR-RES = assay: NCI-60 antiproliferative screening, NCI/ADR-RES; format: cell-based; details: Homo sapiens, NCI/ADR-RES (Ovarian Cancer), read-out: Inhibition% values at 10 μM concentration
Source text: as §1

SF-268 = assay: NCI-60 antiproliferative screening, SF-268; format: cell-based; details: Homo sapiens, SF-268 (CNS Cancer), read-out: Inhibition% values at 10 μM concentration
Source text: as §1

M14 = assay: NCI-60 antiproliferative screening, M14; format: cell-based; details: Homo sapiens, M14 (Melanoma), read-out: Inhibition% values at 10 μM concentration
Source text: as §1

UACC-62 = assay: NCI-60 antiproliferative screening, UACC-62; format: cell-based; details: Homo sapiens, UACC-62 (Melanoma), read-out: Inhibition% values at 10 μM concentration
Source text: as §1

NCI-H460 = assay: NCI-60 antiproliferative screening, NCI-H460; format: cell-based; details: Homo sapiens, NCI-H460 (Non-Small Cell Lung Cancer), read-out: Inhibition% values at 10 μM concentration
Source text: as §1

COLO 205 = assay: NCI-60 antiproliferative screening, COLO 205; format: cell-based; details: Homo sapiens, COLO 205 (Colon Cancer), read-out: Inhibition% values at 10 μM concentration
Source text: as §1

HS 578T = assay: NCI-60 antiproliferative screening, HS 578T; format: cell-based; details: Homo sapiens, HS 578T (Breast Cancer), read-out: Inhibition% values at 10 μM concentration
Source text: as §1

Structure (SMILES): COc1cccc(-c2nc3c(c(-c4cccc(OC)c4)n2)CCN(C(=O)CCCCCCC(=O)NO)C3)c1 [Compound 8f, 8-(2,4-Bis(3-methoxyphenyl)-5,8-dihydropyrido [3,4-d]pyrimidin-7(6H)-yl)-N-hydroxy-8-oxooctanamide]
- levels of acetylated histone 3 (H3) [1]: only modest changes
- HDAC4 IC50 (HDAC4): poor activity
- IC50 (HDAC4): > 10000 nM
- inhibition at 10 µM (SK-MEL-2): 100%
- inhibition at 10 µM (UACC-257): 98.7%
- inhibition at 10 µM (HOP-62): 99.1%
- inhibition at 10 µM (786-0): 89.1%
- inhibition at 10 µM (MALME-3M): 100%
- inhibition at 10 µM (SNB-19): 100%
- inhibition at 10 µM (HCC-2998): 100%
- inhibition at 10 µM (UO-31): 100%
- inhibition at 10 µM (HT29): 95.3%
- IC50 (RPMI-8226): 2800 nM
- inhibition at 10 µM (MDA-MB-468): 100%
- inhibition at 10 µM (HCT-116): 96%
- inhibition at 10 µM (HOP-92): 100%
- melting point: 117 to 118 °C
- number of cell lines with percent inhibitions > 80% [2]: 56 cell lines
- inhibition at 10 µM (OVCAR-5): 100%
- inhibition at 10 µM (NCI/ADR-RES): 100%
- inhibition at 10 µM (SF-268): 92.2%
- inhibition at 10 µM (M14): 90.5%
- inhibition at 10 µM (UACC-62): 100%
- inhibition at 10 µM (NCI-H460): 95.5%
- inhibition at 10 µM (COLO 205): 100%
- inhibition at 10 µM (HS 578T): 97.8%
